Broadly, the GI50 is the concentration at which growth is held to half of that of the control. In general, TGI refers to the concentration at which net growth stops. Low readings indicate more potent growth arrest, high ones less potent growth arrest.

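Interpolation was linear, between the two tested concentrations surrounding the appropriate level; five concentrations were tested over 48 hours in 96-well plates. Abbreviation: GI50, concentration required for 50% inhibition of growth. TGI: total growth inhibition.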

Six compounds from PubChem BioAssay (NCI) can be followed below.

Test systems include 786-0 renal; CCRF-CEM leukemia; HCT-116 colon; HOP-62 NSCLC; MALME-3M melanoma; NCI-H460 lung; OVCAR-5 ovarian; SN12C renal; SW-620 colon; T-47D breast.
Common to all, as to test: DTP human tumour cell line panel, 48 h

For the compound `CN(C)c1ccc2[nH]c3c(C(N)=O)cc(=O)c(=O)c=3oc2c1`, the GI50 with 786-0 renal is 3.19 µM; in the assay on CCRF-CEM leukemia it was 0.472 µM; with HCT-116 colon it was 0.304 µM; in the assay on HOP-62 NSCLC, 2.42 µM; in the assay with MALME-3M melanoma, 1.81 µM; in the assay with NCI-H460 lung it was 2.57 µM. For the same compound, the GI50 in the assay on OVCAR-5 ovarian is 3.36 µM; with SN12C renal it was 1.95 µM; in the assay on SW-620 colon, 2.02 µM; in the assay on T-47D breast, 1.81 µM. Moreover, the TGI in the assay on 786-0 renal is 22.2 µM; in the assay on CCRF-CEM leukemia, above 100 µM; with HCT-116 colon, 1.22 µM; in the assay with HOP-62 NSCLC, above 100 µM; with MALME-3M melanoma it was 4.45 µM; with NCI-H460 lung, above 100 µM. Besides, the TGI in the assay on OVCAR-5 ovarian is 17.2 µM; in the assay on SN12C renal, 7.23 µM; in the assay with SW-620 colon it was above 100 µM; in the assay with T-47D breast, above 100 µM.
In the case of `C=C(C)C(=O)Nc1ccc(-c2c(-c3ccc(Oc4nccc(C)n4)c(F)c3)c3c(N)ncnc3n2C)cc1`, the GI50 in the assay on 786-0 renal was 2.43 µM; with CCRF-CEM leukemia, 5.25 µM; in the assay with HCT-116 colon, 5.05 µM; in the assay on HOP-62 NSCLC, 4.69 µM; in the assay with MALME-3M melanoma, 3.29 µM; in the assay on NCI-H460 lung, 3.05 µM. The GI50 in the assay with OVCAR-5 ovarian is 4.43 µM; with SN12C renal it was 2.63 µM; with SW-620 colon it was 8.7 µM; in the assay with T-47D breast it was 2.97 µM. The TGI in the assay on 786-0 renal was 30.6 µM; in the assay with CCRF-CEM leukemia, above 100 µM; in the assay with HCT-116 colon, 19.8 µM; in the assay on HOP-62 NSCLC, 20 µM; in the assay with MALME-3M melanoma it was 17 µM; in the assay with NCI-H460 lung, 13.3 µM. In addition, the TGI in the assay with OVCAR-5 ovarian amounted to 20.9 µM; with SN12C renal, 17.2 µM; in the assay on SW-620 colon, 25.9 µM; in the assay on T-47D breast it was 35.5 µM.
As for `COc1ccc(/C=C/c2ccnc3ccccc23)cc1OC`, the TGI in the assay on 786-0 renal is above 100 µM; in the assay with CCRF-CEM leukemia, 31 µM; in the assay on HCT-116 colon it was 25.1 µM; in the assay with HOP-62 NSCLC it was 28.5 µM; in the assay on MALME-3M melanoma, 30.7 µM; in the assay on NCI-H460 lung it was 28.5 µM. Also, the TGI came to 27.6 µM in the assay on OVCAR-5 ovarian, 62.1 µM in the assay on SN12C renal, 29.1 µM in the assay on SW-620 colon and 74.5 µM in the assay with T-47D breast.
With `COc1ccc2c(c1)/C(=N/OC(C)=O)c1c-2c(OC)nc2ccccc12`, the GI50 is above 100 µM in the assay with 786-0 renal; above 100 µM with CCRF-CEM leukemia; above 100 µM with HCT-116 colon; 83.7 µM in the assay on HOP-62 NSCLC; 57.3 µM in the assay with MALME-3M melanoma; above 100 µM in the assay with NCI-H460 lung. For the same compound, the GI50 with OVCAR-5 ovarian is above 100 µM; in the assay with SN12C renal, 59.9 µM; with SW-620 colon it was above 100 µM; in the assay with T-47D breast, 27.7 µM. Moreover, the total growth inhibition concentration (TGI) in the assay on 786-0 renal, in the assay with CCRF-CEM leukemia, with HCT-116 colon, in the assay with HOP-62 NSCLC, with MALME-3M melanoma and in the assay on NCI-H460 lung was above 100 µM in each case. In addition, the concentration for total growth inhibition (TGI) in the assay on OVCAR-5 ovarian, in the assay on SN12C renal, in the assay with SW-620 colon and in the assay on T-47D breast was above 100 µM throughout.
Take `COC(=O)c1cc(-c2ccc(S(C)(=O)=O)cc2)[nH]c1N/N=C/c1c(Cl)cccc1Cl`: the GI50 in the assay with 786-0 renal was 0.747 µM; with CCRF-CEM leukemia it was 0.759 µM; in the assay on HCT-116 colon, 0.454 µM; in the assay on HOP-62 NSCLC it was 0.787 µM; with MALME-3M melanoma, 1.35 µM; in the assay with NCI-H460 lung, 0.367 µM. Besides, the GI50 in the assay on OVCAR-5 ovarian is 4.08 µM; in the assay on SN12C renal, 0.699 µM; in the assay with SW-620 colon, 0.362 µM; in the assay on T-47D breast, 0.374 µM. Also, the TGI with 786-0 renal is above 32.2 µM; with HCT-116 colon it was above 47.9 µM; in the assay on HOP-62 NSCLC, 32.9 µM; in the assay with MALME-3M melanoma, 23.1 µM; in the assay with NCI-H460 lung, 10.3 µM; in the assay with OVCAR-5 ovarian it was above 100 µM. Also, the TGI with SN12C renal is above 100 µM; in the assay on SW-620 colon, above 100 µM; in the assay with T-47D breast, above 35.7 µM.
For the compound `COc1ccc2c(c1)C(=O)c1c-2n(CCCN(C)C)c(=O)c2cc([N+](=O)[O-])ccc12`, the concentration for 50% growth inhibition (GI50) in the assay on 786-0 renal is below 0.01 µM; in the assay with CCRF-CEM leukemia it was below 0.01 µM; with HCT-116 colon it was below 0.01 µM; in the assay with HOP-62 NSCLC, below 0.01 µM; in the assay on MALME-3M melanoma, 0.0207 µM; in the assay on NCI-H460 lung, below 0.01 µM. In addition, the concentration for 50% growth inhibition (GI50) was 0.0235 µM in the assay with OVCAR-5 ovarian, below 0.01 µM in the assay on SN12C renal, below 0.01 µM in the assay with SW-620 colon and below 0.01 µM in the assay on T-47D breast. Moreover, the TGI with 786-0 renal is below 0.01 µM; in the assay with CCRF-CEM leukemia, below 0.01 µM; in the assay on HCT-116 colon, 0.21 µM; in the assay with HOP-62 NSCLC, below 0.0447 µM; in the assay with MALME-3M melanoma, 0.892 µM; with NCI-H460 lung it was 0.234 µM. Further, the TGI with OVCAR-5 ovarian is 0.394 µM; with SN12C renal, 10.7 µM; in the assay on SW-620 colon it was 1.34 µM; in the assay on T-47D breast it was 21.6 µM.
